Values of other authors in patent US20090203685A1, “ANTI-PROLIFERATIVE COMPOUNDS FROM A 3-ARYL-COUMARINE OR 3-ARYL-QUINOLIN-2-ONE AND USES THEREOF” (EOS (ETHICAL ONCOLOGY SCIENCE) S.P.A., priority 2006, published 2009).

What was measured:
[1] = tested on: small cell lung carcinoma (SCLC) and lymphoid cells; conditions: cited from earlier work
SCLC tumor = conditions: in vivo; cited from earlier work

In the case of `CN(C)CC[C@H](CSc1ccccc1)Nc1ccc(S(=O)(=O)NC(=O)c2ccc(N3CCN(Cc4ccccc4-c4ccc(Cl)cc4)CC3)cc2)cc1[N+](=O)[O-]` [ABT-737], the “Apoptosis of SCLC and lymphoid cells” value [1] is given as “induces apoptosis” and the “SCLC tumor regression in mouse models” value (SCLC tumor) is given as “induces SCLC tumor regression”.
